# Laboratory results reported in US11793420B2, “Ingestible device for delivery of a dispensable substance” (Biora Therapeutics, Inc., priority 2016, dated 2023).
# Molecular target: Human TNFα (Homo sapiens, UniProt P01375)
# Assay: AlphaLISA competitive inhibition assay of drug recovered from bellows or syringe
# Chain of Human TNFα (P01375 77-233 limits assumed): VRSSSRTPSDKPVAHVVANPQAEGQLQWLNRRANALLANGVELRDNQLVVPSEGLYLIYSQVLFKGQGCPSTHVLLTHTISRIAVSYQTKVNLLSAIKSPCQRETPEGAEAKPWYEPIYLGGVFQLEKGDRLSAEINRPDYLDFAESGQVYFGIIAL
substance,measurement,setting,value
adalimumab [Exemptia],shift of bellows curves,"after 24 hours (FIG. 86), within the error bars",slight right shift
same,IC50 values of the drug dispensed from the bellows versus standard dispensation method,bellows vs. standard dispensation method (Table 6),comparable
same,impact of bellows on drug function,"silicone or PVC bellows, shelf lives of 4, 24 hours, or 336 hours",do not negatively impact the drug function
